Laboratory results taken from ChEMBL document CHEMBL1201862, “PubChem BioAssay data set” (2004).
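Values below derive from 48-hour exposures of cells grown in 96-well plates, with endpoints linearly interpolated between the two concentrations bracketing the appropriate inhibition level. GI50 marks 50% less growth.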 Activity calls are given as the source filed them. Rule as the data show it: active = GI50 up to about 1.1 µM and inactive = higher.

What was measured:
Assay in all cases: NCI anticancer screen, dose series, 48 h
TK-10 = tested on: TK-10
Malme-3M = tested on: Malme-3M
M14 = tested on: M14
CAKI-1 = tested on: CAKI-1
MDA-MB-231 = tested on: MDA-MB-231
OVCAR-8 = tested on: OVCAR-8
HCT-116 = tested on: HCT-116
NCI-H522 = tested on: NCI-H522
UACC-62 = tested on: UACC-62
SW-620 = tested on: SW-620
HL-60 = tested on: HL-60
CCRF-CEM = tested on: CCRF-CEM
KM12 = tested on: KM12
SK-MEL-2 = tested on: SK-MEL-2
U-251 = tested on: U-251
DU-145 = tested on: DU-145
HCC 2998 = tested on: HCC 2998
PC-3 = tested on: PC-3
UACC-257 = tested on: UACC-257
SNB-78 = tested on: SNB-78

SMILES	GI50 (TK-10)	GI50 (Malme-3M)	GI50 (M14)	GI50 (CAKI-1)	GI50 (MDA-MB-231)	GI50 (OVCAR-8)	GI50 (HCT-116)	GI50 (NCI-H522)	GI50 (UACC-62)	GI50 (SW-620)	GI50 (HL-60)	GI50 (CCRF-CEM)	GI50 (KM12)	GI50 (SK-MEL-2)	GI50 (U-251)	GI50 (DU-145)	GI50 (HCC 2998)	GI50 (PC-3)	GI50 (UACC-257)	GI50 (SNB-78)
O=[N+]([O-])/C(C(Cl)=C(Cl)Cl)=C(/Sc1ccccc1)N1CCCCC1	> 100 µM (inactive)	19.8 µM (inactive)	> 69.2 µM (inactive)	> 22.9 µM (inactive)	> 61.5 µM (inactive)	> 58.2 µM (inactive)	37.8 µM (inactive)	13.6 µM (inactive)	13.9 µM (inactive)	> 100 µM (inactive)	2.24 µM (inactive)	4.74 µM (inactive)	> 100 µM (inactive)	2.44 µM (inactive)	> 100 µM (inactive)	> 53.2 µM (inactive)	> 100 µM (inactive)	> 75.9 µM (inactive)	54.2 µM (inactive)	–
O=C(Nc1ccccc1)n1cc(-c2ccccn2)c(N2CCOCC2)n1	> 100 µM (inactive)	2.54 µM (inactive)	8.91 µM (inactive)	13 µM (inactive)	–	46 µM (inactive)	4.29 µM (inactive)	2.56 µM (inactive)	5.62 µM (inactive)	5.85 µM (inactive)	2.44 µM (inactive)	5.48 µM (inactive)	1.79 µM (inactive)	–	4.94 µM (inactive)	–	21.7 µM (inactive)	–	17.7 µM (inactive)	24.9 µM (inactive)
CC1=CC(=O)NP(=O)(Oc2ccc(C)cc2)N1 (configuration not stated)	> 100 µM (inactive)	> 100 µM (inactive)	> 100 µM (inactive)	> 100 µM (inactive)	–	> 100 µM (inactive)	> 100 µM (inactive)	> 100 µM (inactive)	> 100 µM (inactive)	> 100 µM (inactive)	> 100 µM (inactive)	> 100 µM (inactive)	> 100 µM (inactive)	> 100 µM (inactive)	> 100 µM (inactive)	–	–	–	> 100 µM (inactive)	> 100 µM (inactive)
COc1ccccc1/N=N/c1c(-c2ccccc2)nn(C(=O)CC(=O)Nc2cccc(C)c2)c1-c1ccccc1	72.1 µM (inactive)	45.6 µM (inactive)	14.7 µM (inactive)	23.3 µM (inactive)	–	31.2 µM (inactive)	28 µM (inactive)	16.4 µM (inactive)	38.8 µM (inactive)	41.3 µM (inactive)	15.3 µM (inactive)	15.2 µM (inactive)	26.1 µM (inactive)	–	20 µM (inactive)	–	42 µM (inactive)	–	27.3 µM (inactive)	61.8 µM (inactive)
NC(=S)N/N=C/c1cn(CCCl)c2ccccc12	90.2 µM (inactive)	> 100 µM (inactive)	56.4 µM (inactive)	18.7 µM (inactive)	–	57.3 µM (inactive)	27.4 µM (inactive)	11.9 µM (inactive)	30.2 µM (inactive)	43.6 µM (inactive)	9.57 µM (inactive)	20.7 µM (inactive)	32.7 µM (inactive)	72.1 µM (inactive)	–	–	–	–	22 µM (inactive)	> 100 µM (inactive)
O=C1C2=C(CCCCC2)C2CCCCC12O (configuration not stated)	> 100 µM (inactive)	> 100 µM (inactive)	> 100 µM (inactive)	–	–	> 100 µM (inactive)	> 100 µM (inactive)	> 100 µM (inactive)	> 100 µM (inactive)	> 100 µM (inactive)	> 100 µM (inactive)	> 100 µM (inactive)	> 100 µM (inactive)	> 100 µM (inactive)	> 100 µM (inactive)	–	> 100 µM (inactive)	–	> 100 µM (inactive)	> 100 µM (inactive)
CC1=CC[C@@]2(C)[C@@H]([C@@H]1C)[C@H]1CC[C@@H]3[C@@]4(C)CC[C@H](O)C(C)(C)[C@@H]4CC[C@@]3(C)[C@]1(C)C[C@@H]2O	> 39.5 µM (inactive)	30.4 µM (inactive)	6.52 µM (inactive)	37.2 µM (inactive)	8.2 µM (inactive)	14.1 µM (inactive)	22.2 µM (inactive)	2.52 µM (inactive)	> 45.8 µM (inactive)	33.6 µM (inactive)	50.1 µM (inactive)	5.38 µM (inactive)	23.3 µM (inactive)	24.8 µM (inactive)	7.94 µM (inactive)	8 µM (inactive)	17.7 µM (inactive)	18.6 µM (inactive)	17.4 µM (inactive)	–
S=C1Cc2c(-c3ccccc3)cc(-c3ccc(Cl)cc3)nc2-c2ccccc2N1	2.12 µM (inactive)	3.33 µM (inactive)	3.97 µM (inactive)	1.36 µM (inactive)	1.53 µM (inactive)	0.982 µM (active)	1.85 µM (inactive)	2.06 µM (inactive)	2.45 µM (inactive)	2.94 µM (inactive)	16.9 µM (inactive)	3.08 µM (inactive)	8.75 µM (inactive)	6.85 µM (inactive)	0.746 µM (active)	13 µM (inactive)	5.07 µM (inactive)	6.14 µM (inactive)	4.7 µM (inactive)	–
Cc1ccc(C2SCc3nc4ccccc4n32)cc1 (configuration not stated)	3.54 µM (inactive)	4.04 µM (inactive)	4.49 µM (inactive)	1.52 µM (inactive)	10.6 µM (inactive)	3.66 µM (inactive)	3.11 µM (inactive)	4.74 µM (inactive)	2.43 µM (inactive)	4.84 µM (inactive)	1.6 µM (inactive)	2.79 µM (inactive)	1.51 µM (inactive)	1.1 µM (active)	5.87 µM (inactive)	4.29 µM (inactive)	10.8 µM (inactive)	1.88 µM (inactive)	4.79 µM (inactive)	–
CCOC(=O)[C-]([N+]#N)[Si](C)(C)C	> 100 µM (inactive)	> 100 µM (inactive)	–	> 100 µM (inactive)	–	> 100 µM (inactive)	53.1 µM (inactive)	–	72.4 µM (inactive)	> 100 µM (inactive)	–	–	> 100 µM (inactive)	> 100 µM (inactive)	24.2 µM (inactive)	–	> 100 µM (inactive)	–	59.3 µM (inactive)	> 100 µM (inactive)
c1ccc(COCC2OC3c4ccccc4COC3C2OCc2ccccc2)cc1 (configuration not stated)	> 100 µM (inactive)	> 100 µM (inactive)	> 100 µM (inactive)	76.9 µM (inactive)	–	> 100 µM (inactive)	71.3 µM (inactive)	–	52.7 µM (inactive)	> 100 µM (inactive)	–	–	> 100 µM (inactive)	> 100 µM (inactive)	> 100 µM (inactive)	–	> 100 µM (inactive)	–	61.2 µM (inactive)	> 100 µM (inactive)
CC1OC(n2cc(C(F)(F)F)c(=O)[nH]c2=O)C=CC1=O (configuration not stated)	20.9 µM (inactive)	18.4 µM (inactive)	22.9 µM (inactive)	–	–	27.2 µM (inactive)	16.2 µM (inactive)	16 µM (inactive)	21 µM (inactive)	17.6 µM (inactive)	18.5 µM (inactive)	–	18.5 µM (inactive)	18.2 µM (inactive)	> 10 µM (inactive)	–	18.3 µM (inactive)	–	19.1 µM (inactive)	15.8 µM (inactive)
O=C(COc1ccc(Cl)cc1)N1CCN(C(=O)COc2ccc(Cl)cc2)c2ccccc21	33.4 µM (inactive)	36.6 µM (inactive)	–	–	–	53.2 µM (inactive)	30.4 µM (inactive)	22.5 µM (inactive)	–	> 100 µM (inactive)	13.4 µM (inactive)	34 µM (inactive)	57 µM (inactive)	28.1 µM (inactive)	74 µM (inactive)	–	> 100 µM (inactive)	–	25.2 µM (inactive)	45.4 µM (inactive)
CC12CP(=O)(c3ccccc3)CC1C2(Cl)Cl (configuration not stated)	> 100 µM (inactive)	–	> 100 µM (inactive)	–	–	> 100 µM (inactive)	> 100 µM (inactive)	> 100 µM (inactive)	> 100 µM (inactive)	> 100 µM (inactive)	> 10 µM (inactive)	> 100 µM (inactive)	> 100 µM (inactive)	–	> 100 µM (inactive)	–	> 100 µM (inactive)	–	–	> 100 µM (inactive)
Cc1cc(=O)oc2cc(OC(=O)Nc3ccc(Cl)c(Cl)c3)ccc12	34.9 µM (inactive)	23.1 µM (inactive)	22.6 µM (inactive)	38.3 µM (inactive)	26 µM (inactive)	20.2 µM (inactive)	15.5 µM (inactive)	17.3 µM (inactive)	16 µM (inactive)	21.4 µM (inactive)	18.5 µM (inactive)	20.7 µM (inactive)	27.1 µM (inactive)	21.6 µM (inactive)	20.4 µM (inactive)	25.3 µM (inactive)	19.4 µM (inactive)	22.5 µM (inactive)	30.8 µM (inactive)	–
N#CC1(C#N)NC(c2cccs2)C(C#N)(C#N)NC1c1cccs1 (configuration not stated)	> 100 µM (inactive)	41.9 µM (inactive)	31.3 µM (inactive)	58.6 µM (inactive)	80.9 µM (inactive)	54.7 µM (inactive)	30.5 µM (inactive)	23.1 µM (inactive)	20.6 µM (inactive)	31.1 µM (inactive)	17.1 µM (inactive)	22.2 µM (inactive)	39.9 µM (inactive)	14.2 µM (inactive)	22.8 µM (inactive)	59.7 µM (inactive)	57.1 µM (inactive)	27.4 µM (inactive)	> 100 µM (inactive)	–
COc1cc(CCc2cccnc2)cc(OC)c1OC	> 100 µM (inactive)	> 100 µM (inactive)	> 100 µM (inactive)	> 100 µM (inactive)	–	> 100 µM (inactive)	> 100 µM (inactive)	65.8 µM (inactive)	> 100 µM (inactive)	> 100 µM (inactive)	> 100 µM (inactive)	> 100 µM (inactive)	> 100 µM (inactive)	–	> 100 µM (inactive)	–	–	–	> 100 µM (inactive)	> 100 µM (inactive)
